Earlier results on one molecule are cited in patent publication US20040097481A1, “Water-soluble mesoporphyrin compounds and methods of preparation” (priority 2002, published 2004).

The conditions of the data set: product of the above-referenced known preparation methods.

As for `CCC1=C(C)c2cc3[n-]c(cc4[n-]c(cc5nc(cc1n2)C(C)=C5CC)c(C)c4CCC(=O)O)c(CCC(=O)O)c3C.[Cl-].[Cl-].[Sn+4]` [stannsoporfin, Tin (IV) mesoporphyrin IX chloride], the Water solubility result is given as “non-water soluble”.
